Data set [1] concerns ICR mice. As to the kind of experiment: EPO expression level in mice after intravenous EPO mRNA lipid nanoparticles (human EPO ELISA of plasma). The note with it: mRNA dosage 0.1 mg/kg, plasma 6 hours after administration, Comparative Example set to 1. Format: in vivo. The method, then:
(§1) The compounds shown in Table 9, 1,2-distearoyl-sn-glycero-3-phosphocholine (product name: COATSOME® MC-8080; NOF corporation) (hereinafter, DSPC), cholesterol (product name: Cholesterol HP; Nippon Seika Co., Ltd.), and 1,2-dimyristoyl-rac-glycero-3-(methylpolyoxyethylene 2000) (hereinafter, DMG-PEG2000) (product name: SUNBRIGHT® GM-020; NOF corporation) were dissolved in ethanol at a molar ratio (mol %) of compounds shown in Table 9:1,2-distearoyl-sn-glycero-3-phosphocholine:cholesterol:DMG-PEG2000=50:10:38.5:1.5 such that the total lipid concentration was 12.5 mmol/L, thereby obtaining an oil phase.
(§2) EPO mRNA (product name: CleanCap EPO mRNA (5moU); TriLink) was diluted with 50 mmol/L citrate buffer having a pH 4.0 such that the weight ratio of total lipid concentration to mRNA concentration is about 20:1, thereby obtaining a water phase. Then, the water phase and the oil phase were mixed together using NanoAssemblr (Precision NanoSystems) such that the volume ratio of water phase:oil phase was 3:1, and the mixed solution was 2-fold diluted with phosphate buffered physiological saline (PBS) or water, thereby obtaining a dispersion liquid of mRNA lipid nanoparticles. The dispersion liquid was dialyzed with 20 mM Tris buffer solution containing 8% sucrose using a dialysis cassette (Slide-A-Lyzer G2, MWCO: 10 kD, Thermo Fisher Scientific) to remove ethanol, thereby obtaining EPO mRNA-encapsulating lipid nanoparticles.
(§3) The dispersion liquid of mRNA lipid nanoparticles prepared in above <Preparation of EPO mRNA-encapsulating lipid nanoparticles> was intravenously administered to ICR mice at a mRNA dosage of 0.1 mg/kg. 6 hours after the administration, blood was collected from the caudal vena cava, thereby obtaining plasma. The human EPO […] was quantified by using the obtained blood plasma and Erythropoietin (EPO) Human Elisa Kit (Abcam.plc). The quantitative value is described as a relative amount of EPO protein in a case where Comparative Example is set to 1.
For orientation: An ELISA detects its analyte on a solid surface through an enzyme-linked reagent.

For data set [2], the system named is ICR mice. Nature of the data set: EPO expression level in mice, dose dependency (human EPO ELISA of plasma). Format: in vivo. The note with it: intravenous, plasma 6 hours after administration. The method, then: as §1, §2
as §3, with “0.1, 0.5, and 1” for “0.1”, “where the amount of EPO protein at the time of 0.1 mg/kg administration in” for “where”

A short description of data set [3]: Encapsulation rate of mRNA in lipid nanoparticles. Format: physicochemical. The note with it: EPO mRNA-encapsulating lipid nanoparticles, compound:DSPC:cholesterol:DMG-PEG2000=50:10:38.5:1.5. The procedure: as §1, §2
<Evaluation of Encapsulation Rate of mRNA> (Quantification of Total mRNA Concentration)
EPO mRNA was diluted with MilliQ water to prepare a diluted sample in 2-fold dilution series from 100 μg/mL to 3.1 μg/mL, and a standard solution for calibration was prepared. 50 μL of the standard solution for calibration or the mRNA lipid nanoparticles was mixed with 450 μL of methanol to prepare a measurement solution.
The absorbance of each measurement solution at 260 nm and 330 nm was measured using a UV plate reader (Multiskan Go, Thermo Fisher Scientific), the absorbance at 330 nm was subtracted from the absorbance at 260 nm, and the result was used as the absorbance of each measurement solution. The total water phase nucleic acid concentration was calculated from the calibration curve using the absorbance of each sample measurement solution.
(Quantification of mRNA Concentration in Outer Water Phase)
The concentration of the outer water phase nucleic acid was quantified by a standard addition method using a QuanT-iT RiboGreen RNA Assay Kit (Thermo Fisher Scientific). First, a 20×TE buffer included in the above kit was diluted with water, thereby obtaining a 1×TE buffer. TE represents Tris/EDTA (ethylenediaminetetraacetic acid). EPO mRNA was diluted with a TE buffer such that the final concentration was 0 to 400 ng/mL to prepare a nucleic acid diluted series. 10 μL of mRNA lipid nanoparticles diluted 5-fold with TE buffer and 90 μL of a nucleic acid dilution series were mixed in a 96-well plate, 100 μL of a Ribogreen reagent diluted 200-fold with TE buffer was added to each well, and then fluorescence (excitation wavelength: 485 nm, fluorescence wavelength: 535 nm) was measured using a fluorescence plate reader (Infinite 200 Pro M nano+, TECAN). From the obtained results, the outer water phase nucleic acid concentration of each measurement solution was calculated according to the standard addition method.
(Calculation of Encapsulation Rate)
By using the quantification results of the total mRNA concentration and the mRNA concentration in the outer water phase that were obtained through the above steps, the mRNA encapsulation rate of the mRNA lipid nanoparticles was calculated according to the following Equation.

A short description of data set [4]: Particle diameter and polydispersity index (PdI) of mRNA-encapsulating lipid nanoparticles. It is filed as physicochemical. The note with it: EPO mRNA-encapsulating lipid nanoparticles, compound:DSPC:cholesterol:DMG-PEG2000=50:10:38.5:1.5; diluted with PBS. The method, then:
as §1, §2
The particle diameter and the polydispersity index (PdI) of the mRNA-encapsulating lipid nanoparticles were obtained by measuring a dispersion liquid of lipid nanoparticles diluted with phosphate buffered physiological saline (PBS) using a particle size analyzer NanoSAQLA (Otsuka Electronics Co., Ltd.).

`CCCCCCCC(=O)OCCN(CCOC(=O)OC(CCCCCC)CCCC(=O)OCC(CCCC)CCCCCC)CCN(CC)CC` (stereo not drawn) [Comparative Example, 2-butyloctyl 3-ethyl-12-hexyl-6-(2-(octanoyloxy)ethyl)-10-oxo-9,11-dioxa-3,6-diazahexadecan-16-oate, reference compound]: the “Relative amount of EPO protein (with respect to Comparative Example 1)” value in the data set with ICR mice [1] came to 1.00. For the same compound, the “Relative amount of EPO protein (with respect to Comparative Example 1 at 0.1 mg/kg)” value in the data set on ICR mice [2] (mRNA dosage 0.1 mg/kg) was found to be 1.00; in the data set with ICR mice [2] (mRNA dosage 0.5 mg/kg), 0.25; in the data set on ICR mice [2] (mRNA dosage 1.0 mg/kg), 1.10. Moreover, the “Nucleic acid encapsulation rate” value in data set [3] stood at 50%. Besides, the “Particle diameter (nm)” value in data set [4] is given as 161 nm. This compound returned a PdI in data set [4] of 0.07.

As to `CCCCCCCOC(=O)CCCC(CCCCCC)OC(=O)OCCN(CCOC(=O)C(CCCCCCC)CCCCCCC)CCN(CC)CC` (stereo not drawn) [Compound 3, heptyl 3-ethyl-6-(2-((2-heptylnonanoyl)oxy)ethyl)-12-hexyl-10-oxo-9,11-dioxa-3,6-diazahexadecan-16-oate], the “Relative amount of EPO protein (with respect to Comparative Example 1)” value in the data set with ICR mice [1] is 3.16. For the same compound, the “Relative amount of EPO protein (with respect to Comparative Example 1 at 0.1 mg/kg)” value with ICR mice [2] (mRNA dosage 0.1 mg/kg) came out at 1.91; in the data set with ICR mice [2] (mRNA dosage 0.5 mg/kg), 17.26; in the data set on ICR mice [2] (mRNA dosage 1.0 mg/kg), 27.22. The “Nucleic acid encapsulation rate” value in data set [3] stood at 84%. Further, in data set [4], the “Particle diameter (nm)” value was determined as 105 nm. Further, the PdI in data set [4] was 0.06.

Turning to `CCCCCCCCC(CCCCCCCC)C(=O)OCCN(CCCN(CC)CC)CCOC(=O)OC(CCCCCC)CCCCC(=O)OCCCCCCC` (stereo not drawn) [Compound 23, heptyl 3-ethyl-13-hexyl-7-(2-((2-octyldecanoyl)oxy)ethyl)-11-oxo-10,12-dioxa-3,7-diazaoctadecan-1 8-oate], the “Relative amount of EPO protein (with respect to Comparative Example 1)” value in the data set on ICR mice [1] turned out to be 4.71. In addition, the “Relative amount of EPO protein (with respect to Comparative Example 1 at 0.1 mg/kg)” value with ICR mice [2] (mRNA dosage 0.1 mg/kg) stood at 4.97; with ICR mice [2] (mRNA dosage 0.5 mg/kg), 25.74; with ICR mice [2] (mRNA dosage 1.0 mg/kg) it was 43.74. Moreover, the “Nucleic acid encapsulation rate” value in data set [3] turned out to be 95%. Besides, the “Particle diameter (nm)” value in data set [4] amounted to 85 nm. In addition, in data set [4], the PdI stood at 0.11.

Take `CCCCCCCCC(CCCCCC)C(=O)OCCN(CCCN(CC)CC)CCOC(=O)OC(CCCCCC)CCCCC(=O)OCCCCCCC` (stereo not drawn) [Compound 24, heptyl 3-ethyl-13-hexyl-7-(2-((2-hexyldecanoyl)oxy)ethyl)-11-oxo-10,12-dioxa-3,7-diazaoctadecan-18-oate]: the “Relative amount of EPO protein (with respect to Comparative Example 1)” value with ICR mice [1] stood at 6.54. Besides, the “Relative amount of EPO protein (with respect to Comparative Example 1 at 0.1 mg/kg)” value in the data set with ICR mice [2] (mRNA dosage 0.1 mg/kg) was determined as 4.65; with ICR mice [2] (mRNA dosage 0.5 mg/kg), 26.81; in the data set on ICR mice [2] (mRNA dosage 1.0 mg/kg) it was 45.73. Further, the “Nucleic acid encapsulation rate” value in data set [3] is given as 94%. Further, the “Particle diameter (nm)” value in data set [4] was 98 nm. The same compound returned a PdI in data set [4] of 0.13.

Take `CCCCCCCOC(=O)CCCCC(CCCCCC)OC(=O)OCCN(CCCN(CC)CC)CCOC(=O)CC(CCCCCCC)CCCCCCC` (stereo not drawn) [Compound 25, heptyl 3-ethyl-7-(2-((3-heptyldecanoyl)oxy)ethyl)-13-hexyl-11-oxo-10,12-dioxa-3,7-diazaoctadecan-18-oate]: the “Relative amount of EPO protein (with respect to Comparative Example 1)” value in the data set on ICR mice [1] is 4.77. In data set [3], the “Nucleic acid encapsulation rate” value was determined as 94%. In addition, in data set [4], the “Particle diameter (nm)” value is recorded as 102 nm and the PdI is reported as 0.16.

As for “heptyl 3-ethyl-12-hexyl-6-(2-((2-hexyloctanoyl)oxy)ethyl)-10-oxo-9,11-dioxa-3,6-diazahexadecan-1 6-oate [Compound 5]”, the “Relative amount of EPO protein (with respect to Comparative Example 1)” value in the data set on ICR mice [1] was 2.28. Also, the “Nucleic acid encapsulation rate” value in data set [3] came to 79%. In data set [4], the “Particle diameter (nm)” value amounted to 118 nm and the PdI was found to be 0.07.
